{
  "source": "patent US20260216383A1",
  "about": "“RADIOLABELED MEDICINE” (National University Corporation Chiba University, priority 2022, published 2026)",
  "tested_on": "BBMVs (kidney brush border membrane vesicles)",
  "test": "Incubation test with BBMVs (kidney brush border membrane vesicles)",
  "assay_type": "in vitro ADME, male Wistar rat",
  "details": "37° C., two hours",
  "description": "Kidney brush border membrane vesicles (BBMVs) were prepared from the kidney of a male Wistar rat (200 to 250 g) in accordance with the method of Hori et al. [Biochemical Pharmacology 45: 1763-1768, 1993]. All the operations were carried out on ice. From four to five times the mass of 300 mM mannitol and a 12 mM tris hydrochloride buffer solution (pH 7.1) containing 5 mM EGTA were added to the cortex, and the mixture was homogenized with a Polytron Homogenizer PT-3100 (manufactured by Kinematica GmgH) for two minutes, and diluted with the same buffer solution, so as to obtain a 10% homogenate. […] The BBMVs thus prepared were evaluated for the incorporation of the lysosome enzyme by measuring the activity of β-galactosidase as a lysosome marker enzyme using p-nitrophenyl-β-D-galacto-pyranoside [Plant Physiology 55: 94-98, 1975]. Further, the activities of γ-glutamyl transferase and aminopeptidase were measured by using L-γ-glutamyl-p-nitroanilide and L-leucine-p-nitroanilide in accordance with the methods of Glossmann et al. [FEBS Letters 19: 340-344, 1972], Kramers et al. [European Journal of Biochemistry 99: 345-351, 1979].\nThe incubation test of BBMVs and a ^67Ga-labeled low-molecular model substrate was carried out in the following manner. […] The supernatant obtained was analyzed by HPLC at a flow rate of 1 mL/min. using an Imtakt Unison US-C18 150 mm×4.6 mm column. […]",
  "data": [
    {"substance": "^67Ga-NOTA-Phe-Gly-Lys(Bzo) [^67Ga-labeled NOTA-Phe-Gly-Lys(Bzo)]", "values": [
      {"measurement": "amount of radioactive metabolite released by BBMVs, compared with ^67Ga-labeled NOTA-Met-Val-Lys(Bzo)", "result": "lower than the amount of ^67Ga-labeled-NOTA-Met released from ^67Ga-labeled NOTA-Met-Val-Lys(Bzo)"},
      {"measurement": "radioactive metabolite peak observed after incubation with BBMVs", "setting": "HPLC of supernatant", "result": "A peak of ^67Ga-labeled-NOTA-Phe-Gly was observed, not a peak of ^67Ga-labeled-NOTA-Phe"}
    ]}
  ]
}
